Reference: PubChem BioAssay (NCI)
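How tested: cells in 96-well plates exposed to compound for 48 hours at five concentrations. GI50 is the concentration that inhibits growth by half. Definition used: TGI = concentration required for complete inhibition of growth.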

Legend:
Assay in all cases: NCI-60 cell line screen, 48 h
[1] = system: EKVX NSCLC
[2] = system: SF-268 CNS
[3] = system: A549 NSCLC
[4] = system: SNB-19 CNS
[5] = system: K-562 leukemia
[6] = system: SW-620 colon
[7] = system: UO-31 renal
[8] = system: A498 renal
[9] = system: CAKI-1 renal
[10] = system: KM12 colon
[11] = system: COLO 205 colon
[12] = system: OVCAR-5 ovarian
[13] = system: ACHN renal
[14] = system: UACC-257 melanoma
[15] = system: MDA-MB-231 breast
[16] = system: DU-145 prostate
[17] = system: MALME-3M melanoma
[18] = system: SF-539 CNS
[19] = system: NCI/ADR-RES ovarian
[20] = system: SK-MEL-28 melanoma
[21] = system: NCI-H23 lung
[22] = system: RPMI-8226 leukemia
[23] = system: OVCAR-4 ovarian
[24] = system: RXF 393 renal
[25] = system: HCC-2998 colon
[26] = system: CCRF-CEM leukemia
[27] = system: OVCAR-3 ovarian
[28] = system: OVCAR-8 ovarian
[29] = system: PC-3 prostate
[30] = system: NCI-H522 lung
[31] = system: HOP-92 NSCLC
[32] = system: HCT-116 colon
[33] = system: M14 melanoma
[34] = system: IGROV1 ovarian
[35] = system: SK-OV-3 ovarian
[36] = system: LOX IMVI melanoma
[37] = system: SF-295 CNS
[38] = system: HOP-62 NSCLC
[39] = system: HT29 colon
[40] = system: NCI-H460 lung
[41] = system: SN12C renal
[42] = system: SK-MEL-5 melanoma
[43] = system: MOLT-4 leukemia
[44] = system: HL-60(TB) leukemia
[45] = system: MCF7 breast
[46] = system: 786-0 renal
[47] = system: NCI-H226 lung
[48] = system: BT-549 breast
[49] = system: TK-10 renal
[50] = system: HCT-15 colon
[51] = system: T-47D breast
[52] = system: SR leukemia
[53] = system: SNB-75 CNS
[54] = system: MDA-MB-435
[55] = system: SK-MEL-2 melanoma
[56] = system: U251 CNS
[57] = system: UACC-62 melanoma
[58] = system: HS 578T breast

What does the source list for COc1cc(NS(C)(=O)=O)ccc1Nc1c2ccc(Cl)cc2nc2c(OC)cccc12?
GI50 [1]: 6200 nM; TGI [1]: 26700 nM; GI50 [2]: 131 nM; TGI [2]: 11500 nM; GI50 [3]: 13.5 nM; TGI [3]: 1350 nM; GI50 [4]: 135 nM; TGI [4]: 22300 nM; GI50 [5]: 425 nM; TGI [5]: > 100000 nM; GI50 [6]: 79.9 nM; TGI [6]: 2170 nM; GI50 [7]: 46.6 nM; TGI [7]: 698 nM; GI50 [8]: 156 nM; TGI [8]: 2240 nM; GI50 [9]: 31.6 nM; TGI [9]: 1870 nM; GI50 [10]: 268 nM; TGI [10]: 1810 nM; GI50 [11]: 182 nM; TGI [11]: 2350 nM; GI50 [12]: 1590 nM; TGI [12]: 23300 nM; GI50 [13]: 31.4 nM; TGI [13]: 1500 nM; GI50 [14]: 698 nM; TGI [14]: 4070 nM; GI50 [15]: 3000 nM; TGI [15]: 15600 nM; GI50 [16]: < 14.3 nM; TGI [16]: 505 nM; GI50 [17]: 211 nM; TGI [17]: 4690 nM; GI50 [18]: 59 nM; TGI [18]: 681 nM; GI50 [19]: 1350 nM; TGI [19]: > 49400 nM; GI50 [20]: 1960 nM; TGI [20]: 18000 nM; GI50 [21]: 125 nM; TGI [21]: 5360 nM; GI50 [22]: 595 nM; GI50 [23]: 2320 nM; TGI [23]: 16700 nM; GI50 [24]: 411 nM; TGI [24]: 3040 nM; GI50 [25]: 826 nM; TGI [25]: 5230 nM; GI50 [26]: 30.9 nM; TGI [26]: > 91700 nM; GI50 [27]: 719 nM; TGI [27]: 2510 nM; GI50 [28]: 186 nM; TGI [28]: 5070 nM; GI50 [29]: 782 nM; TGI [29]: 15200 nM; GI50 [30]: 222 nM; TGI [30]: 2120 nM; GI50 [31]: 76.5 nM; TGI [31]: 2480 nM; GI50 [32]: 79.4 nM; TGI [32]: 2050 nM; GI50 [33]: 146 nM; TGI [33]: 1830 nM; GI50 [34]: 331 nM; TGI [34]: 6890 nM; GI50 [35]: 117 nM; TGI [35]: 2000 nM; GI50 [36]: 109 nM; GI50 [37]: 35.6 nM; TGI [37]: 1110 nM; GI50 [38]: 56.1 nM; TGI [38]: 1440 nM; GI50 [39]: 142 nM; TGI [39]: 1850 nM; TGI [40]: 1370 nM; GI50 [41]: 62.8 nM; TGI [41]: 3530 nM; GI50 [42]: 129 nM; TGI [42]: 3970 nM; TGI [43]: 2150 nM; GI50 [44]: 31.3 nM; TGI [44]: 1300 nM; GI50 [45]: < 16.1 nM; TGI [45]: 13200 nM; GI50 [46]: 52.6 nM; TGI [46]: 689 nM; GI50 [47]: 80.6 nM; TGI [47]: 830 nM; GI50 [48]: 441 nM; TGI [48]: 2240 nM; GI50 [49]: 137 nM; TGI [49]: 1830 nM; GI50 [50]: 226 nM; GI50 [51]: 82.6 nM; TGI [51]: 3370 nM; GI50 [52]: < 10.9 nM; TGI [52]: 10200 nM; GI50 [53]: 96.6 nM; TGI [53]: 1590 nM; GI50 [54]: 913 nM; TGI [54]: 16000 nM; GI50 [55]: 1470 nM; TGI [55]: 7350 nM; GI50 [56]: 98.2 nM; TGI [56]: 1320 nM; GI50 [57]: 189 nM; TGI [57]: 2960 nM; GI50 [58]: 4470 nM; TGI [58]: 73700 nM
